Results reported in patent US11219697B2, “Osteoadsorptive fluorogenic substrate of cathepsin k for imaging osteoclast activity and migration” (The Regents of the University of California, priority 2017, dated 2022).
Entries after “also recorded” stand apart in the source; their conditions may differ. Where two headings read alike, the source gives them in different places. *: point of attachment. pamidronate = 1-hydroxy-1,1-bisphosphonate, amide on Lys carboxyl, O=P(O)(O)C(O)(CCN*)P(=O)(O)O; BHQ‑1 = Black Hole Quencher-1; βAla = NCCC(=O)O

What was measured:
[1] = test system: osteoclast activity; experiment: Fluorescence imaging of maxilla ex vivo in mice after tooth extraction; details: young mice, 5 nMol/mouse
Text: FIG. 8, panels a-c, show White light (left) and fluorescence (right) images of mice after tooth extraction. Panel a) Vehicle control; Panel b) OFS-1 (5a) 5 nMol/mouse; Panel c) Positive control (4a) 5 nMol/mouse

[2] = test system: human osteoclasts; experiment: Human osteoclasts co-cultured with human multiple myeloma cells (8226-LUC); format: cell-based; details: co-cultured with 8226-LUC
[3] = target: T1, Cathepsin K (Homo sapiens, UniProt P43235); experiment: Enzyme studies: cleavage of the probe by activated cathepsin K, initial rates, Lineweaver-Burke plot; format: biochemical
T1 construct: purchased Enzo Life Sciences
T1 sequence (P43235 115-329): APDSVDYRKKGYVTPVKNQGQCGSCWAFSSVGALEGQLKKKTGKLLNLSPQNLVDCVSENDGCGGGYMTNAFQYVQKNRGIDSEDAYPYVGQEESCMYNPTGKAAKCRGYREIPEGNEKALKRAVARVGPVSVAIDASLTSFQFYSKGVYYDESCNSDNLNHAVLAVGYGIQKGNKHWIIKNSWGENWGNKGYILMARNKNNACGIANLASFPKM
Procedure: Kinetic parameters Kcat and Km were determined from initial rates at 37° C. and pH 5.5 in a buffer consisting of 50 mM sodium acetate buffer with 2.5 mM EDTA, 1 mM DTT and 0.01% TRITON X-100®. Enzyme concentration was 2.5 nM, substrate concentration ranged from 0.0781 to 2.50 μM. Fluorescence measurements were done every 1 min using a Biotek Synergy H4 plate reader with black Corning 3720 96-well plates. Parameters were determined using a Lineweaver-Burke plot. Fluorescence calibration was obtained using compound 9a at concentrations between 0.00977 and 2.5 μM. Background fluorescence was estimated using intact 10a at concentrations ranging from 0.0781 to 2.50 μM.
Cathepsin K was prepared by activation of procathepsin K purchased from Enzo Life Sciences. Activation was carried out by adding […], pH 3.5 sodium acetate buffer in a 1:2 ratio to as-received proenzyme solution and leaving at 21° C. for 30 min before dilution with assay buffer. Solutions of activated enzyme were stored on ice and used within 10 min. Buffers were prepared in house according to concentrations provided by Enzo Life Sciences.

[4] = test system: 8226-LUC human multiple myeloma cells; experiment: OFS-1 activation by multiple myeloma in humanized BLT mice; format: in vivo; details: humanized mice carrying 8226-LUC cells
Procedure: FIG. 9, panels a-c, illustrates OFS-1 activation by multiple myeloma in humanized mice. 8226-LUC human multiple myeloma cells were injected to humanized BLT mice.

[5] = test system: monocyte-derived human osteoclasts; experiment: Osteoclasts cultured on calcium phosphate coated microwells preadsorbed with probe, fluorescence timelapse; format: cell-based
Text: We attribute this to a lack of calcium phosphate for the probe to bind to. In several cases, osteoclasts can be seen migrating on the surface without completely dissolving the calcium phosphate and leaving a trail of enhanced fluorescence in their wake (see, e.g., FIG. 4). This is how the probe is presumed to function in vivo, by fluorescently labeling any regions exposed to osteoclast resorptive activity. […] Another phenomenon observed in all videos was a transient decrease in fluorescence within the boundaries of the osteoclast sealing zone, seen as rapidly moving dark areas around the cells (see, e.g., FIG. 5). This effect was expected and results from the pH sensitivity of carboxyfluorescein. The pH under an active osteoclast has been reported to be as low as 4.5 (Teitelbaum (2000) Science, 289(5484): 1504-1508). Carboxyfluorescein cyclizes to a nonfluorescent form when protonated and has a pKa of approximately 6.5 (Han & Burgess (2010) Chem. Rev. 110: 2709-2728; Massou et al. (2000) Biochem. Educ. 28:171-173). Thus fluorescent intensity is decreased. This is further evidence that the probe is exposed to the sub-osteoclast environment as intended. Another phenomenon observed in the timelapses was concentrated fluorescent intensity in cells themselves, both attached and detached from the substrate. […]

[6] = Adsorption on calcium phosphate substrates; format: physicochemical
[7] = target: T1, Cathepsin K; details: values found in literature; cited from earlier work
[8] = cited from earlier work

OFS-1: bone-targeted pamidronate probe with 5-FAM fluorophore and BHQ-1 quencher linked by cathepsin K peptide Gly-His-Pro-Gly-Gly-Pro-Gln-Gly ({BHQ‑1}-GHPGGPQG-{βAla-K(5-FAM)-pamidronate})
Fluorescent signal in maxilla ex vivo after tooth extraction [1]: increased fluorescent signal in maxilla ex vivo; also recorded: enhanced signal in response to tooth extraction
OFS-1 activation by osteoclasts in co-culture with multiple myeloma cells [2]: significantly increased OFS-1 activation
Kcat ([3]; in solution at 37° C., pH 5.5): 0.2 ± 0.03 s⁻¹
Km ([3]; in solution at 37° C., pH 5.5): 1.7 ± 0.2 µM
Cleavage/activation by cathepsin K ([3]; purified cathepsin K): cleaved by cathepsin K albeit at a slower rate; also recorded: activated by purified cathepsin K
Probe activation / fluorescent signal at multiple myeloma engrafted sites [4]: localized at the multiple myeloma (8226-LUC) engrafted site; also recorded: Strong activation
Fluorescent signal in response to osteoclast resorptive activity [5]: give a fluorescent signal in response to resorptive activity
Fluorescent signal in response to osteoclast resorptive activity ([5]; listed as USC FRET-1): increased fluorescence around cells that were actively resorbing hydroxyapatite (HA)
Adsorption on calcium phosphate substrates [6]: avidly adsorbed on calcium phosphate substrates; also recorded: found to adsorb on calcium phosphate substrates

Abz-HPGGPQ-EDN2Ph
Kcat (literature value) [7]: 0.5 ± 0.03 s⁻¹
Km [7]: 1.2 ± 0.2 µM

O=C(O)c1ccc2c(c1)C(=O)OC21c2ccc(O)cc2Oc2cc(O)ccc21 [Carboxyfluorescein, 5-carboxyfluorescein]
pKa [8]: approximately 6.5
